Reference: ChEMBL document CHEMBL1201862, “PubChem BioAssay data set” (2004)
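Test compounds were applied to cells in 96-well plates for 48 hours at 5 doses. Here, GI50 denotes the concentration required for 50% inhibition of growth.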 The source made the active and inactive calls. Cut-off read from the data, not from the text of the source: active = GI50 up to about 1.1 µM and inactive = higher. Square brackets hold non-standard residues; d marks the D form. Peptide text beside a SMILES is read from it. pGlu = O=C1CC[C@@H](C(=O)O)N1; Thz = O=C(O)[C@@H]1CSCN1

Experiments:
Assay in all cases: inhibition of tumour cell growth, NCI panel, 48 h
[1] = system: HCC 2998
[2] = system: HCT-116
[3] = system: HCT-15
[4] = system: Hs-578T
[5] = system: IGROV-1
[6] = system: KM12
[7] = system: LOX IMVI
[8] = system: MCF7
[9] = system: MDA-N
[10] = system: MOLT-4
[11] = system: NCI-H460
[12] = system: NCI/ADR-RES
[13] = system: OVCAR-3
[14] = system: RXF 393
[15] = system: SF-295
[16] = system: SK-OV-3
[17] = system: SNB-19
[18] = system: SW-620

Row | SMILES | GI50 [1] | GI50 [2] | GI50 [3] [µM] | GI50 [4] | GI50 [5] | GI50 [6] | GI50 [7] | GI50 [8] | GI50 [9] | GI50 [10] | GI50 [11] | GI50 [12] | GI50 [13] | GI50 [14] | GI50 [15] | GI50 [16] | GI50 [17] | GI50 [18]
1 | CCC(CS(=O)(=O)O)[N+](=O)[O-] (stereo not drawn) | > 100 µM (inactive) | > 100 µM (inactive) | > 100 | > 100 µM (inactive) | > 100 µM (inactive) | > 100 µM (inactive) | > 100 µM (inactive) | > 100 µM (inactive) | > 100 µM (inactive) | > 100 µM (inactive) | > 100 µM (inactive) | > 100 µM (inactive) | > 100 µM (inactive) | > 100 µM (inactive) | > 100 µM (inactive) | > 100 µM (inactive) | > 100 µM (inactive) | > 100 µM (inactive)
2 | COC(=O)[C@@]1(NC(=O)C(CC(=O)OC(C)(C)C)NC(=O)OC(C)(C)C)C[C@H]1C (stereo partly drawn) | > 100 µM (inactive) | > 100 µM (inactive) | > 100 | > 100 µM (inactive) | > 100 µM (inactive) | > 100 µM (inactive) | > 100 µM (inactive) | > 100 µM (inactive) | > 100 µM (inactive) | > 100 µM (inactive) | > 100 µM (inactive) | > 100 µM (inactive) | > 100 µM (inactive) | > 100 µM (inactive) | > 100 µM (inactive) | > 100 µM (inactive) | > 100 µM (inactive) | > 100 µM (inactive)
3 | O=C1CC[C@@H](C(=O)N2CSC[C@H]2C(=O)O)N1 [PIDOTIMOD] ([pGlu]-[Thz]-OH) | > 100 µM (inactive) |  | > 100 | > 100 µM (inactive) | > 100 µM (inactive) | > 100 µM (inactive) | > 100 µM (inactive) | > 100 µM (inactive) | > 100 µM (inactive) | > 100 µM (inactive) | > 100 µM (inactive) | > 100 µM (inactive) | > 100 µM (inactive) | > 100 µM (inactive) | > 100 µM (inactive) | > 100 µM (inactive) | > 100 µM (inactive) | > 100 µM (inactive)
4 | N#Cc1cc2c(cc1C#N)SCCSCCCSCCS2 | > 72.4 µM (inactive) | 21.3 µM (inactive) | 14.6 | 3.96 µM (inactive) | 24.7 µM (inactive) | > 100 µM (inactive) | 6.31 µM (inactive) | 28.2 µM (inactive) | > 100 µM (inactive) | > 89.9 µM (inactive) | 15.2 µM (inactive) | 30.5 µM (inactive) | 25.2 µM (inactive) | 5.92 µM (inactive) | 5.47 µM (inactive) | 12 µM (inactive) | 6.79 µM (inactive) | 29.4 µM (inactive)
5 | N#Cc1nc(-c2cc([N+](=O)[O-])cc([N+](=O)[O-])c2)oc1N | > 10 µM (inactive) | > 10 µM (inactive) | > 10 | > 10 µM (inactive) | > 10 µM (inactive) | > 10 µM (inactive) | > 10 µM (inactive) | > 10 µM (inactive) | > 10 µM (inactive) | > 10 µM (inactive) | > 10 µM (inactive) | > 10 µM (inactive) |  | > 10 µM (inactive) | > 10 µM (inactive) | > 10 µM (inactive) | > 10 µM (inactive) | > 10 µM (inactive)
6 | c1ccc([P+](CCN2Cc3ccccc3C2)(c2ccccc2)c2ccccc2)cc1 | 2.94 µM (inactive) | 3 µM (inactive) | 12.7 | 12.5 µM (inactive) | 0.368 µM (active) | 3.23 µM (inactive) | 3.84 µM (inactive) | 3.59 µM (inactive) | 3.27 µM (inactive) | 6.44 µM (inactive) | 5.79 µM (inactive) | 69.5 µM (inactive) | 3.13 µM (inactive) | 5.35 µM (inactive) | 6.92 µM (inactive) | 20.7 µM (inactive) | 6.7 µM (inactive) | 4.22 µM (inactive)
7 | CCOc1cc(CCNC)c2c(ccc3ccc(OC)c(O)c32)c1OC | 15.5 µM (inactive) | 10.4 µM (inactive) | 17.5 | 17.4 µM (inactive) | 13.9 µM (inactive) | 11.9 µM (inactive) | 11.5 µM (inactive) | 8.47 µM (inactive) | 2.49 µM (inactive) | 5.82 µM (inactive) | 14.1 µM (inactive) | 19.2 µM (inactive) | 14.5 µM (inactive) | 15.7 µM (inactive) | 16.2 µM (inactive) | 14.4 µM (inactive) | 16.1 µM (inactive) | 
8 | COc1cc(C(=O)OC2CC(C)=CC[C@@]3(C)CC[C@](O)(C(C)C)C23)ccc1O (stereo partly drawn) | 14.5 µM (inactive) | 19 µM (inactive) | 18.6 | 17.3 µM (inactive) | 19 µM (inactive) | 15.9 µM (inactive) | 16.2 µM (inactive) | 12.4 µM (inactive) | 18.3 µM (inactive) | 13.2 µM (inactive) | 16.6 µM (inactive) | 15.4 µM (inactive) | 18.5 µM (inactive) | 18.4 µM (inactive) | 21.7 µM (inactive) | 15.4 µM (inactive) | 19.2 µM (inactive) | 28.5 µM (inactive)
9 | COC(=O)c1ccc(C)cc1C1CN=NC12Cc1cccc(C)c1C2=O (stereo not drawn) | 42.2 µM (inactive) | 42.3 µM (inactive) | 47.2 | 38.3 µM (inactive) | 53.1 µM (inactive) | 26.7 µM (inactive) | 28.6 µM (inactive) | 91.2 µM (inactive) | 26.2 µM (inactive) | 19.6 µM (inactive) | 63 µM (inactive) | 25.4 µM (inactive) | 32.8 µM (inactive) | > 100 µM (inactive) | 50 µM (inactive) | 90.4 µM (inactive) | > 100 µM (inactive) | 57.7 µM (inactive)
10 | COC(=O)C1=C(OC(=O)/C(=C/c2ccccc2)c2ccc(Cl)cc2)C(C(=O)OC)[C@@]2(O)[C@@H](C(=O)OC)[C@H](C)C[C@@H]1[C@@H]2C(=O)OC (stereo partly drawn) | > 100 µM (inactive) | > 100 µM (inactive) | > 100 | > 100 µM (inactive) | > 100 µM (inactive) | > 100 µM (inactive) | > 100 µM (inactive) | > 100 µM (inactive) | > 100 µM (inactive) | 79.3 µM (inactive) | > 100 µM (inactive) | > 100 µM (inactive) | > 100 µM (inactive) | > 100 µM (inactive) | > 100 µM (inactive) | > 100 µM (inactive) | > 100 µM (inactive) | > 100 µM (inactive)
11 | COc1ccc(-c2oc3cc(OC)c(OC)c(O)c3c(=O)c2OC)cc1 | > 100 µM (inactive) | > 100 µM (inactive) | 40.5 | 24 µM (inactive) | 18.7 µM (inactive) | > 100 µM (inactive) | 53.5 µM (inactive) | 41.6 µM (inactive) | > 100 µM (inactive) | > 100 µM (inactive) | > 100 µM (inactive) | 80.5 µM (inactive) |  | 22.7 µM (inactive) | 20.8 µM (inactive) | 22.7 µM (inactive) | 28.4 µM (inactive) | > 100 µM (inactive)
12 | CCCCCC[C@H]([C@H](C)O)n1cnc2c(N)ncnc21 | > 100 µM (inactive) | > 100 µM (inactive) | > 100 | > 100 µM (inactive) | > 100 µM (inactive) | > 100 µM (inactive) | > 100 µM (inactive) | > 100 µM (inactive) | > 100 µM (inactive) | > 100 µM (inactive) | > 100 µM (inactive) | > 100 µM (inactive) | > 100 µM (inactive) | > 100 µM (inactive) | > 100 µM (inactive) | > 100 µM (inactive) | > 100 µM (inactive) | > 100 µM (inactive)
13 | O=C(CCCl)NN=C1NCCN1 | > 100 µM (inactive) | > 100 µM (inactive) | > 100 | > 100 µM (inactive) | > 100 µM (inactive) | > 100 µM (inactive) | > 100 µM (inactive) | > 100 µM (inactive) | > 100 µM (inactive) | > 100 µM (inactive) | > 100 µM (inactive) | > 100 µM (inactive) | > 100 µM (inactive) | > 100 µM (inactive) | > 100 µM (inactive) | > 100 µM (inactive) | > 100 µM (inactive) | > 100 µM (inactive)
14 | O=C(/C=C/c1cccs1)c1cccc(C(=O)/C=C/c2cccs2)n1 | > 100 µM (inactive) | 2.82 µM (inactive) | 24 | 23.8 µM (inactive) | 27.7 µM (inactive) | 6.43 µM (inactive) | 2.05 µM (inactive) | 1.25 µM (inactive) | 28.2 µM (inactive) | 2.29 µM (inactive) | > 100 µM (inactive) | > 60 µM (inactive) | 42.2 µM (inactive) | > 48.9 µM (inactive) | 76 µM (inactive) | > 100 µM (inactive) | 19.3 µM (inactive) | 4.05 µM (inactive)
15 | CCC(=O)O[C@H]1CC[C@H]2[C@@H]3CCC4=C/C(=N/OC(=O)c5cccc6cc7ccccc7nc56)CC[C@]4(C)[C@H]3CC[C@]12C | > 100 µM (inactive) | 36.1 µM (inactive) | 55.7 | 39.6 µM (inactive) | 11.5 µM (inactive) | 40.7 µM (inactive) | 33.4 µM (inactive) | 42.2 µM (inactive) | 51.5 µM (inactive) | > 100 µM (inactive) | 39.1 µM (inactive) | 60.4 µM (inactive) | 29 µM (inactive) | > 100 µM (inactive) |  | > 100 µM (inactive) | 70.1 µM (inactive) | 65.8 µM (inactive)
16 | O=C(NNC(=S)Nc1ccccc1)C12CC3CC(CC(C3)C1)C2 | 30.9 µM (inactive) | 13.6 µM (inactive) | 7.28 | > 74.3 µM (inactive) | 25.1 µM (inactive) | 43.2 µM (inactive) | 11.2 µM (inactive) | 19.2 µM (inactive) | 26.8 µM (inactive) | 10 µM (inactive) | 7.23 µM (inactive) | 15.5 µM (inactive) | 10.6 µM (inactive) | 27.7 µM (inactive) | 11.4 µM (inactive) | 41.4 µM (inactive) | 25.4 µM (inactive) | 24.2 µM (inactive)
